In patent US20210198256A1, “COMPOUNDS FOR THE DEGRADATION OF BRD9 OR MTH1” (C4 Therapeutics, Inc., priority 2018, published 2021):

Legend:
BRD9 = biological target: T1, BRD9 (Homo sapiens, UniProt Q9H8M2); test: HiBit Lytic Assay (HiBit DC50, BRD9 degraders of Table 1); assay type: cell-based; settings: 11-point half log dose response, NanoLuc signal
T1 sequence (Q9H8M2 1-597): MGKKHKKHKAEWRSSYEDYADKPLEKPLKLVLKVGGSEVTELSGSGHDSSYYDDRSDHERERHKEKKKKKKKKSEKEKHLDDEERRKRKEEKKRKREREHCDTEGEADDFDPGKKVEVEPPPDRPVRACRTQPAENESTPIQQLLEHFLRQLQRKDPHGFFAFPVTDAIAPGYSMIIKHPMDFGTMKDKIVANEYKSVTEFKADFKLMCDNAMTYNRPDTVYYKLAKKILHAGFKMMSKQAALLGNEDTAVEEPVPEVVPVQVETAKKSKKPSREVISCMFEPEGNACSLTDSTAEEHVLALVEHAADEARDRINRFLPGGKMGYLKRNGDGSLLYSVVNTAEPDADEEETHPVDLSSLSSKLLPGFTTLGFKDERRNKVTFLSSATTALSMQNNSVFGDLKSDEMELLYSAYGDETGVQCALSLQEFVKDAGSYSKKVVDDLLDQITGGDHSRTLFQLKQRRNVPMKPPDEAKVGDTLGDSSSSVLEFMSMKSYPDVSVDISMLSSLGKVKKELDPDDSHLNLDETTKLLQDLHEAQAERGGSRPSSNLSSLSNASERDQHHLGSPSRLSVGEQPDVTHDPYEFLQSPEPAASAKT
Experimental: Example 3. HiBit Lytic Assay
• Compound is made at 10 mM, half log dilution, 11 points. • MDR plates can also be ordered from Frontier with same format. • 1. Barcode a 384LDV plate (384-well Low Dead Volume Microplate, Labcyte LP-0200) (Echo compatible) on the left side. • 2. Transfer 13.6 μL of 10 mM compound into column 1 of LDV plate (Labcyte). • 3. Fill column 2-11 and column 23 of MDR plate with 9.30 μL of DMSO. • 4. Serial dilute 3.16 fold from column 1 to 2 by transferring 4.30 μL from column 1 to column 2, and so on to column 11. *Change tip in every dilution to prevent compound carryover effect! • 5. Seal the plate with Plate Sealer, then store the MDR plate at room temperature for short term storage and in −20° C. for long term storage.
• Cells are treated with 30 nL of each compound at 10 mM, half log dilution, 11 points with final concentration of 1000 nM or 833 nM, half log dilution, 11 points, in duplicates. Final DMSO concentration is 0.1%. • 1. Barcode the plates made on the left side and label the plates with silver marker. • 2. Dispense with the following scheme: • a. 30 nL of compound into corresponding wells in cell plates via Echo550 with “MDR32_HiBiT16_30 nL”. Top concentration will be 1000 nM. • 3. Seal the plate with Plate Sealer.
• Cells are dispensed at density specified in Cell Line Table in 384-well microplate. • 1. Culture cells to between 50-80% of confluence in sterile culture flasks of appropriate size. • 2. For Adherent Cell Lines: • a. Aspirate off growth media in culture flask, and wash off the Phenol Red media with 5 mL of 1×PBS. • b. Add 5 mL of Trypsin to the cells, incubate at 37° C. for 5 minutes. • c. Add 5 mL of growth media to the trypsinzed cells, and resuspend. • 3. Remove 10 μL of cells, and resuspend the cells with 10 μL of Trypan Blue. Insert the solution to counting chamber slide, and count the cells via cell counter. • 4. Adjust the cell concentration to specified plating density, and strain the cells with cell strainer. • 5. Dispense the cells via E1-ClipTip™ Electronic Multichannel Pipettes or Multidrop™ Combi Reagent Dispenser with Standard tube dispensing cassette: • a. Prime the cassette with 10-20 mL of ddH2O. • b. Prime the cassette with 10-20 mL of cells. • c. Dispense the cells at low speed for 30 μL/well in Corning® 384 Well Low Flange Black Flat Bottom Polystyrene TC-Treated Microplate. • d. Wash the cassette with 10-20 mL of ddH2O, follow by 10-20 mL of 70% EtOH, then again with 10-20 mL of ddH2O. • 6. Incubate the plates at 37° C.×compound treatment time.
• 1. If not already, bring Nano-Glo® HiBiT Lytic Buffer to room temperature. • 2. Determine the amount of reagent needed. A volume of reagent equal to the volume of media in the well should be added (i.e. 30 μL of cells will need 30 μL of HiBiT Lytic reagent). • 3. Into a given volume of buffer, dilute the substrate 50-fold and the LgBiT protein 100-fold. For example, to make 10 ml of reagent, add the following: • 10 ml Nano-Glo® HiBiT Lytic Buffer • 200 μl Nano-Glo® HiBiT Lytic Substrate • 100 μl LgBiT Protein • The reagent should be reconstituted immediately before use. However, once reconstituted, it should take about 4 hours for the activity to decrease 10%. • 4. Cool down the cell plate to room temperature for 10-15 minutes without lid. • 5. Dispense the HiBiT Lytic Reagent via E1-ClipTip™ Electronic Multichannel Pipettes or Multidrop™ Combi Reagent Dispenser with Standard tube dispensing cassette: • a. Prime the cassette with 10-20 mL of ddH2O. • b. Prime the cassette with 10-20 mL of CTG 2.0. • c. Dispense the HiBiT Lytic Reagent at medium speed for 30 μL/well in cell plate to column 1-23 (column 24 will be used as plate background). • d. Wash the cassette with 10-20 mL of ddH2O, follow by 10-20 mL of 70% EtOH, then again with 10-20 mL of ddH2O. • 6. Incubate the cell plate at room temperature for 10 minutes without lid. • 7. […]

[1] = test system: SMARTCAR-MTH1-wt-HiBiT (Jurkat.7 cells); test: HiBit Lytic Assay (HiBit DC50, MTH1 degraders of Table 2); assay type: cell-based, human; settings: Jurkat.7 SMARTCAR-MTH1-wt-HiBiT cells, compound treatment time 4 hr, 11-point half log dose response
Procedure, shortened: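 Jurkat.7 cells expressing SMARTCAR-MTH1-wt-HiBiT were treated at 37° C with 11-point half-log dilutions (top final 1000 nM or 833 nM, duplicates, 0.1% DMSO). Remaining HiBiT-tagged protein was read by Nano-Glo HiBiT lytic luminescence, normalized to media-only and DMSO controls.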

SMILES	DC50 (BRD9)	DC50 [1]
COc1cc(-c2cn(C)c(=O)c3c2cnn3C)cc(OC)c1CN(C)CC(=O)NCCCCCCCCNc1cccc2c1C(=O)N(C1CCC(=O)NC1=O)C2=O (stereo not drawn) [Compound 200, 2-[[4-(1,6-dimethyl-7-oxo-pyrazolo[3,4-c]pyridin-4-yl)-2,6-dimethoxy-phenyl]methyl-methyl-amino]-N-[8-[[2-(2,6-dioxo-3-piperidyl)-1,3-dioxo-isoindolin-4-yl]amino]octyl]acetamide]	< 0.1 µM	–
COc1cc(-c2cn(C)c(=O)c3[nH]ncc23)cc(OC)c1CN(C)CC(=O)NCCCCCCCCNc1cccc2c1C(=O)N(C1CCC(=O)NC1=O)C2=O (stereo not drawn) [Compound 201, 2-[[2,6-dimethoxy-4-(6-methyl-7-oxo-1H-pyrazolo[3,4-c]pyridin-4-yl)phenyl]methyl-methyl-amino]-N-[8-[[2-(2,6-dioxo-3-piperidyl)-1,3-dioxo-isoindolin-4-yl]amino]octyl]acetamide]	< 0.1 µM	–
COc1cc(-c2cn(C)c(=O)c3[nH]ncc23)cc(OC)c1CNCC(=O)NCCCCCCCCCc1ccc2c(c1)C(=O)N(C1CCC(=O)NC1=O)C2=O (stereo not drawn) [Compound 202, 2-[[2,6-dimethoxy-4-(6-methyl-7-oxo-1H-pyrazolo[3,4-c]pyridin-4-yl)phenyl]methylamino]-N-[9-[2-(2,6-dioxo-3-piperidyl)-1,3-dioxo-isoindolin-5-yl]nonyl]acetamide]	< 0.1 µM	–
COc1cc(-c2cn(C)c(=O)c3[nH]ncc23)cc(OC)c1CNCC(=O)NCCCCCCCCCc1cccc2c1C(=O)N(C1CCC(=O)NC1=O)C2=O (stereo not drawn) [Compound 204, 2-[[2,6-dimethoxy-4-(6-methyl-7-oxo-1H-pyrazolo[3,4-c]pyridin-4-yl)phenyl]methylamino]-N-[9-[2-(2,6-dioxo-3-piperidyl)-1,3-dioxo-isoindolin-4-yl]nonyl]acetamide]	< 0.1 µM	–
COc1cc(-c2cn(C)c(=O)c3c2cnn3C)cc(OC)c1CNCC(=O)NCCCCCCCCCc1ccc2c(c1)C(=O)N(C1CCC(=O)NC1=O)C2=O (stereo not drawn) [Compound 206]	< 0.1 µM	–
CNC(=O)c1cnc2ccc(CC(=O)NCCCCCCCCNC(=O)COc3cccc4c3C(=O)N(C3CCC(=O)NC3=O)C4=O)cc2c1Nc1ccccc1 (stereo not drawn) [Compound 459, 6-(2-((8-(2-((2-(2,6-dioxopiperidin-3-yl)-1,3-dioxoisoindolin-4-yl)oxy)acetamido)octyl)amino)-2-oxoethyl)-N-methyl-4-(phenylamino)quinoline-3-carboxamide]	–	< 0.1 µM
NC(=O)c1cnc2ccc(NCCCCCCCCCCNC(=O)CNc3cccc4c3C(=O)N(C3CCC(=O)NC3=O)C4=O)cc2c1Nc1ccccc1 (stereo not drawn) [Compound 464, 6-((10-(2-((2-(2,6-dioxopiperidin-3-yl)-1,3-dioxoisoindolin-4-yl)amino)acetamido)decyl)amino)-4-(phenylamino)quinoline-3-carboxamide]	–	< 0.1 µM
NC(=O)c1cnc2ccc(NCCCCCCCCCCNC(=O)COc3cccc4c3C(=O)N(C3CCC(=O)NC3=O)C4=O)cc2c1Nc1ccccc1 (stereo not drawn) [Compound 465, 6-((10-(2-((2-(2,6-dioxopiperidin-3-yl)-1,3-dioxoisoindolin-4-yl)oxy)acetamido)decyl)amino)-4-(phenylamino)quinoline-3-carboxamide]	–	< 0.1 µM
NC(=O)c1cnc2ccc(NCCCCCCCCNC(=O)COc3cccc4c3C(=O)N(C3CCC(=O)NC3=O)C4=O)cc2c1Nc1ccccc1 (stereo not drawn) [Compound 466, 6-((8-(2-((2-(2,6-dioxopiperidin-3-yl)-1,3-dioxoisoindolin-4-yl)oxy)acetamido)octyl)amino)-4-(phenylamino)quinoline-3-carboxamide]	–	< 0.1 µM
NC(=O)c1cnc2ccc(NC(=O)CCCCCCCCCNC(=O)COc3cccc4c3C(=O)N(C3CCC(=O)NC3=O)C4=O)cc2c1Nc1ccccc1 (stereo not drawn) [Compound 467, 6-(10-(2-((2-(2,6-dioxopiperidin-3-yl)-1,3-dioxoisoindolin-4-yl)oxy)acetamido)decanamido)-4-(phenylamino)quinoline-3-carboxamide]	–	< 0.1 µM
CNC(=O)c1cnc2ccc(-c3ccc(C(=O)NCCCCNC(=O)CN(C)c4cccc5c4C(=O)N(C4CCC(=O)NC4=O)C5=O)cc3)cc2c1Nc1ccccc1 (stereo not drawn) [Compound 471, 6-(4-((4-(2-((2-(2,6-dioxopiperidin-3-yl)-1,3-dioxoisoindolin-4-yl)(methyl)amino)acetamido)butyl)carbamoyl)phenyl)-N-methyl-4-(phenylamino)quinoline-3-carboxamide]	–	< 0.1 µM
CNC(=O)c1cnc2ccc(-c3ccc(C(=O)NCCCNC(=O)CNc4cccc5c4C(=O)N(C4CCC(=O)NC4=O)C5=O)cc3)cc2c1Nc1ccccc1 (stereo not drawn) [Compound 472, 6-(4-((3-(2-((2-(2,6-dioxopiperidin-3-yl)-1,3-dioxoisoindolin-4-yl)amino)acetamido)propyl)carbamoyl)phenyl)-N-methyl-4-(phenylamino)quinoline-3-carboxamide]	–	< 0.1 µM
CNC(=O)c1cnc2ccc(-c3ccc(C(=O)NCCCNC(=O)CN(C)c4cccc5c4C(=O)N(C4CCC(=O)NC4=O)C5=O)cc3)cc2c1Nc1ccccc1 (stereo not drawn) [Compound 473, 6-(4-((3-(2-((2-(2,6-dioxopiperidin-3-yl)-1,3-dioxoisoindolin-4-yl)(methyl)amino)acetamido)propyl)carbamoyl)phenyl)-N-methyl-4-(phenylamino)quinoline-3-carboxamide]	–	< 0.1 µM
CNC(=O)c1cnc2ccc(-c3ccc(C(=O)NCCCCNC(=O)CN(C)c4cccc5c4C(=O)N(C4CCC(=O)NC4=O)C5=O)cc3)cc2c1Nc1ccccc1 (stereo not drawn) [Compound 474, 6-(4-((4-(2-((2-(2,6-dioxopiperidin-3-yl)-1,3-dioxoisoindolin-4-yl)(methyl)amino)acetamido)butyl)carbamoyl)phenyl)-N-methyl-4-(phenylamino)quinoline-3-carboxamide]	–	< 0.1 µM
CNC(=O)c1cnc2cc(OC)c(-c3ccc(C(=O)NCCCCNC(=O)COc4cccc5c4C(=O)N(C4CCC(=O)NC4=O)C5=O)cc3)cc2c1Nc1ccccc1 (stereo not drawn) [Compound 475, 6-(4-((4-(2-((2-(2,6-dioxopiperidin-3-yl)-1,3-dioxoisoindolin-4-yl)oxy)acetamido)butyl)carbamoyl)phenyl)-7-methoxy-N-methyl-4-(phenylamino)quinoline-3-carboxamide]	–	< 0.1 µM
